Source: patent US11213522B2, “Autoimmune-induced glutamatergic receptor dysfunction methods and treatments” (SARAH HERZOG MEMORIAL HOSPITAL EZRAT NASHIM ASSOCIATION, priority 2013, dated 2022)

Legend:
[1] = test system: patient positive for anti-NR1 NMDAR antibodies; assay: Side effects and tolerability (UKU Side Effect Rating Scale, medical work-up), D-serine clinical trial; format: in vivo, human; conditions: throughout the study; 1500 to 4000 mg/day over 6 weeks, adjuvant
Description: (§1) The trial consisted of two periods, starting with a 2 week lead-in/stabilization period (−2-0) following which the patient was entered in the second period of the study which consisted of a 6 week (0-6), open-label, fixed dose therapy phase. During this phase, the patient received adjuvant treatment with DSR, whose dose was increased from 1500 mg/day (week 1) to 2000 mg/day (weeks 2 and 3) to 3000 mg/day (weeks 4 and 5) and to 4000 mg/day (week 6). The doses of the ongoing medication received by the patient remained fixed throughout the study and no changes in medication were performed.
The patient underwent prior to entering the study and at study weeks 3 and 6 a medical work-up including complete medical history, and routine clinical blood work, including blood count+differential, lipids, and glucose levels, kidney, thyroid, and liver function parameters, urinalysis, and blood pressure measurements. Abdominal ultrasound was performed prior to study entry and electroencephalogram (EEG) and brain magnetic resonance imaging (MR1) were obtained pre- and post-DSR administration.
The assessment procedures used in the study included clinical and neurocognitive examinations. Motor and psychiatric symptoms as well as side-effects were rated biweekly throughout the study. […] In conjunction with UKU ratings, patient's vital signs and body weight were monitored throughout the study.

[2] = test system: patient positive for anti-NR1 NMDAR antibodies; assay: Neurocognitive assessment battery (overall); format: in vivo, human
Description: as §1
(§2) In addition, cognitive performance was assessed pre- and post DSR treatment. For this purpose, a 1.5-hour neurocognitive assessment battery (nine computerized and two paper/pencil tests) was employed that measures accuracy and speed of performance in major cognition domains, including attention/vigilance, planning, short-term and working memory, decision making, abstraction and mental flexibility. All the tests were formatted like games and puzzles, and were administered to the patient as part of the comprehensive neuropsychiatric assessment at baseline and the end of study. […]

[3] = doses of ≤4 g/day; cited from earlier work
[4] = test system: patient positive for anti-NR1 NMDAR antibodies; assay: Digit Span Test (DST), forward and backward; format: in vivo, human; conditions: post-6 weeks D-serine
Description: as §1
(§3) In addition, cognitive performance was assessed pre- and post DSR treatment. For this purpose, a 1.5-hour neurocognitive assessment battery (nine computerized and two paper/pencil tests) was employed that measures accuracy and speed of performance in major cognition domains, including attention/vigilance, planning, short-term and working memory, decision making, abstraction and mental flexibility. All the tests were formatted like games and puzzles, and were administered to the patient as part of the comprehensive neuropsychiatric assessment at baseline and the end of study. The neurocognitive battery included the 1) Test of Attentional Vigilance (TOAV, (Forbes, 1998, Journal of Clinical Psychology 54:461-476; Greenberg, 1993, Journal of Child Psychology and Psychiatry 34: 1019-30)); 2) Tower of London (TOL, (Shailice, 1982, Specific impairments of planning Philosophical Transactions of the Royal Society of London. Series B, Biological Sciences 298:199-209); 3-4) Digit Span Test (DST, forward and backward (Wechsler 1997, The Wechsler adult intelligence scale-III. San Antonio, Tex.: Psychological Corporation; Kaplan 1991, The WAIS-R as a neuropsychological instrument. San Antonio, Tex.: The Psychological Corporation; Lamar et al., 2007, Neuropsychologia 45:245-54; Lamar et al., 2008, Neuropsychologia 46:2597-601)); 5-6) Corsi Block Tapping Test (CBTT, forward and backward, (Corsi, 1972, Dissertation Abstracts International. 34:819B; Kessels et al., 2000, Applied Neuropsychology 7:252-58, Kessels et al., 2008, Assessment 15:426-34)); 7) Flanker Task (Erikson and Eriksen, 1974; Perception & Psychophysics 25: 249-63, Stins et. al., 2007, Advances in Cognitive Psychology 3:389-96); 8) Time Wall (Perez et al., 1987, Unified Tri-services cognitive performance assessment battery: review and methodology; DTIC Document ADA181697, http://www.dtic.mil/dtic/tr/fulltext/u2/a81697.pdf); and Wisconsin Card Sort Test (WCST, (Berg, 1948, J Gen Psychol39:15-22; Nelson, 1976, Cortex 12:313-24)). […]

[5] = test system: patient positive for anti-NR1 NMDAR antibodies; assay: Test of Attentional Vigilance (TOAV); format: in vivo, human; conditions: post-6 weeks D-serine
Description: as §1
as §3, with “International.” for “International. 34:819B; Kessels et al., 2000, Applied Neuropsychology 7:252-58, Kessels et al., 2008, Assessment 15:426-34)); 7) Flanker Task (Erikson and Eriksen, 1974; Perception & Psychophysics 25: 249-63, Stins et. al., 2007, Advances in Cognitive Psychology 3:389-96); 8) Time Wall (Perez et al., 1987, Unified Tri-services cognitive performance assessment battery: review and methodology; DTIC Document ADA181697, http://www.dtic.mil/dtic/tr/fulltext/u2/a81697.pdf); and Wisconsin Card Sort Test (WCST, (Berg, 1948, J Gen Psychol39:15-22; Nelson, 1976, Cortex 12:313-24)).”

[6] = test system: patient positive for anti-NR1 NMDAR antibodies; assay: Wisconsin Card Sort Test (WCST); format: in vivo, human; conditions: post-6 weeks D-serine; pre-treatment subject unable to complete task
Description: as §1, §3

[7] = test system: patient positive for anti-NR1 NMDAR antibodies; assay: Trail-Making-Test (TMT) part A and part B; format: in vivo, human; conditions: post-6 weeks D-serine
Description: as §1, §2

[8] = pre-treatment subject unable to complete task

N[C@H](CO)C(=O)O [D-serine]
Side effects [1]: no side effects were registered | Tolerability of DSR treatment [1]: well tolerated | Completion of DST, TMT and WCST tasks ([2]; post-DSR treatment, not comprehended/performed at baseline): successfully completed | Effect upon cognitive performance (test battery) ([2]; post-DSR vs baseline, improvements in working memory, abstraction and mental flexibility): favorable effect | Adverse events [3]: No significant adverse events | DST Forward Span Length (3-9) ([4]; pre-treatment 6): 7 | DST Forward Number Correct (0-14) ([4]; pre-treatment 8): 9 | DST Backward Number Correct (0-14) [4, 8]: 3 | DST Backward Span Length (3-9) [4, 8]: 4 | TOAV Commission errors ([5]; pre-treatment 1): 0 | TOAV Omission errors ([5]; pre-treatment 1): 2 | TOAV Response time, mean ± SD ([5]; pre-treatment 562 ± 103): 523 ± 93 milliseconds | WCST Category Score [6]: 5 | WCST Total correct score % [6]: 81.25% | WCST Total error score % [6]: 18.75% | WCST Trials to complete 1st category [6]: 12 | TMT Part A ([7]; pre-treatment 42): 60.71 s | TMT Part B ([7]; pre-treatment 102): 86.35 s
